Test results as given in patent EP4610269A1, “UROKINASE PLASMINOGEN ACTIVATOR SURFACE RECEPTOR (UPAR) LIGANDS FOR DIAGNOSTIC OR THERAPEUTIC USE” (3B Pharmaceuticals GmbH, priority 2024, dated 2025).
pIC50: −log10 of the molar value. *1 amine or outer side, *2 acyl side, *3 side chain or, on linkers, in order; H or OH if unused. Where a SMILES comes first, the peptide text is derived from it. Bridges are numbered along the chain shown (N, C = ends). [ ]: non-standard residue; d: D form. The star is where a group is joined. DOTA = O=C(O)CN1CCN(CC(=O)O)CCN(CC(=O)*)CCN(CC(=O)O)CC1; Pro(cis-4-F) = O=C(O)[C@@H]1C[C@H](F)CN1; Dopa = N[C@@H](Cc1ccc(O)c(O)c1)C(=O)O; Bta = N[C@@H](Cc1csc2ccccc12)C(=O)O; NMeY = CN[C@@H](Cc1ccc(O)cc1)C(=O)O; NMeR = CN[C@@H](CCCNC(=N)N)C(=O)O; Hyp = O=C(O)[C@@H]1C[C@@H](O)CN1; Pentanoyl(4-Me) = CC(C)CCC(=O)*; X1 = O=C(CN1CCN([*:1])CC1)[*:2]; Cit = NC(=O)NCCC[C@H](N)C(=O)O; Butoxycarbonyl = CCCCOC(=O)*; Propanoyl(3-OH) = O=C(CCO)*; dNle = CCCC[C@@H](N)C(=O)O; NMeS = CN[C@@H](CO)C(=O)O; Nle = CCCC[C@H](N)C(=O)O; Orn = NCCC[C@H](N)C(=O)O; Nva = CCC[C@H](N)C(=O)O; Pentanoyl = CCCCC(=O)*; Aib = CC(C)(N)C(=O)O; CO = O=C([*:1])[*:2]; X2 = CCCOC(=O)*; NHBu = CCCCN*

How the values were obtained:
[1] = molecular target: T1, uPAR-expressing HEC-265 human endometrial adenocarcinoma cells (Homo sapiens, UniProt Q03405); assay: Competitive FACS binding assay; conditions: pIC50 category of FACS binding
T1 construct: Cell surface uPAR-expressing HEC-265 human endometrial adenocarcinoma cells; host or cells: HEC-265
T1 sequence (Q03405 23-335): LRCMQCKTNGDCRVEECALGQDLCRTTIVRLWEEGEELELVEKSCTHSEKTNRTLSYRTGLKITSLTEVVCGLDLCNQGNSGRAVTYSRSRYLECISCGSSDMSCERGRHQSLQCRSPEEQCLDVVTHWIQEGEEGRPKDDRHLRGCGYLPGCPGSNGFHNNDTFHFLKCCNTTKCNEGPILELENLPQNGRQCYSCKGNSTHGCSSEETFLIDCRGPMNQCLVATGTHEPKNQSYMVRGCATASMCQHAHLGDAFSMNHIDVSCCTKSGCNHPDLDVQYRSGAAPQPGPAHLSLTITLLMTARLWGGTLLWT
In short: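 Competitive displacement of a 10 nM biotinylated peptide from HEC-265 cells (1 h, 4 °C, PBS/1% BSA), detected via APC-streptavidin by flow cytometry. pIC50 from four-parameter logistic fit of median fluorescence versus concentration.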

human uPAR (uPAR-Fc) = molecular target: T2, human uPAR (uPAR-Fc) (Homo sapiens, UniProt Q03405); assay: Surface plasmon resonance (SPR) assay, single cycle kinetics; type: binding; conditions: pKD category for uPAR SPR activity assay; uPAR-Fc on Protein A-Chip, 25°C; read-out: pKD CAT (converted)
T2 construct: comprising amino acids Leu23-Arg303 according to UniProt entry Q03405.1; purchased R&D Systems 10378-UK-100
T2 sequence (Q03405 23-303): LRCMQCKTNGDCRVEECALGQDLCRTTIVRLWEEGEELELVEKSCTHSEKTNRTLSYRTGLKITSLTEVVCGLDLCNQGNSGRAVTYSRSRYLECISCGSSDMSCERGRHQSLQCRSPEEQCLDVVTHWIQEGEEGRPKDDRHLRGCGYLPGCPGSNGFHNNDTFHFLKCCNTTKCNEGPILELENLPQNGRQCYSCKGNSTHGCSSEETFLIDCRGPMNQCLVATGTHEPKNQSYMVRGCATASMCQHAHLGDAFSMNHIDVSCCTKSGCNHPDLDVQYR
In short: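 uPAR-Fc (Leu23-Arg303 extracellular domains, human IgG1 Fc) captured on Protein A chip to ~2000 RU; single-cycle kinetics at 25°C in HEPES running buffer pH 7.4 with 0.1% DMSO. KD from double-referenced sensorgrams fitted to 1:1 Langmuir model, reported as pKD.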

Row | SMILES | pIC50 [1] | Kd (human uPAR (uPAR-Fc)) [nM]
1 | CCCOC(=O)N[C@H]1CSSC[C@@H](C(N)=O)NC(=O)[C@H](CCC)NC(=O)[C@H]([C@@H](C)CC)NC(=O)[C@@H]2C[C@@H](O)CN2C(=O)[C@@H]2CCCN2C(=O)[C@H](Cc2ccccc2)NC(=O)[C@H](Cc2ccc(O)cc2)NC(=O)[C@H](CCCCNC(=O)CN2CCN(CC(=O)O)CCN(CC(=O)O)CCN(CC(=O)O)CC2)NC(=O)[C@H](CCCNC(N)=O)NC1=O [UPAR-267, Prpoc-[Cys-Cit-Lys(DOTA)-Tyr-Phe-Pro-Hyp-Ile-Nva-Cys]-NH2] (X2-C[Cit]K(DOTA)YFP[Hyp]I[Nva]C-NH2; disulfide 1-10) | 7.00 to 7.40 | 10 to 100
2 | CC[C@H](C)[C@@H]1NC(=O)[C@@H](C)NC(=O)[C@@H]2CCCN2C(=O)[C@H](Cc2ccccc2)NC(=O)[C@H](Cc2ccc(O)cc2)NC(=O)C(C)(C)NC(=O)[C@H](CCCNC(N)=O)NC(=O)[C@@H](NC(=O)CCC(C)C)CSSC[C@@H](C(N)=O)NC(=O)[C@H](CC(C)C)NC1=O [UPAR-269, iHex-[Cys-Cit-Aib-Tyr-Phe-Pro-ala-Ile-Leu-Cys]-NH2] ({Pentanoyl(4-Me)}-C[Cit][Aib]YFP[dA]ILC-NH2; disulfide 1-10) | 7.50 to 7.90 | 1.58 to 10
3 | CCCC[C@@H]1NC(=O)[C@H](CCCNC(=N)N)NC(=O)[C@@H](NC(=O)[C@H](CC(C)C)NC(=O)[C@H](CC(=O)O)NC(C)=O)CSSC[C@@H](C(N)=O)NC(=O)[C@H](CC(C)C)NC(=O)[C@H]([C@@H](C)CC)NC(=O)[C@H](C)NC(=O)[C@@H]2CCCN2C(=O)[C@H](Cc2ccccc2)NC(=O)[C@H](Cc2ccc(O)cc2)NC1=O [UPAR-270, Ac-Asp-Leu-[Cys-Arg-Nle-Tyr-Phe-Pro-Ala-Ile-Leu-Cys]-NH2] (Ac-DLCR[Nle]YFPAILC-NH2; disulfide 3-12) | ≥ 8.00 | < 1.58
4 | CCCCC(=O)N[C@H]1CSSC[C@@H](C(N)=O)NC(=O)[C@H](CCC)NC(=O)[C@H]([C@@H](C)CC)NC(=O)CN2CCN(CC2)C(=O)[C@H](Cc2ccccc2)NC(=O)[C@H](Cc2ccc(O)cc2)NC(=O)[C@H](CCC(N)=O)NC(=O)[C@H](CCCNC(=N)N)NC1=O [UPAR-271, Pent-[Cys-Arg-Gln-Tyr-Phe-PPAc-Ile-Nva-Cys]-NH2] (Pentanoyl-CRQYF[X1]I[Nva]C-NH2; disulfide 1-9) | ≤ 6.90 | > 100
5 | CC[C@H](C)[C@@H]1NC(=O)[C@@H](C)NC(=O)[C@@H]2CCCN2C(=O)[C@H](Cc2ccccc2)NC(=O)[C@H](Cc2ccc(O)cc2)NC(=O)[C@H](CCC(N)=O)NC(=O)[C@H](CCCNC(N)=O)NC(=O)[C@@H](NC(=O)CCO)CSSC[C@@H](C(N)=O)NC(=O)[C@H](CC(C)C)NC1=O [UPAR-272, HPA-[Cys-Cit-Gln-Tyr-Phe-Pro-ala-Ile-Leu-Cys]-NH2] ({Propanoyl(3-OH)}-C[Cit]QYFP[dA]ILC-NH2; disulfide 1-10) | 7.00 to 7.40 | > 100
6 | CCCCC(=O)N[C@H]1CSSC[C@@H](C(N)=O)NC(=O)[C@H](CCC)NC(=O)[C@H]([C@@H](C)CC)NC(=O)[C@@H]2C[C@@H](O)CN2C(=O)[C@@H]2CCCN2C(=O)[C@H](Cc2csc3ccccc23)NC(=O)[C@H](Cc2ccc(O)cc2)NC(=O)[C@H](CCC(N)=O)NC(=O)[C@H](CCCNC(=N)N)NC1=O [UPAR-273, Pent-[Cys-Arg-Gln-Tyr-Bta-Pro-Hyp-Ile-Nva-Cys]-NH2] (Pentanoyl-CRQY[Bta]P[Hyp]I[Nva]C-NH2; disulfide 1-10) | ≥ 8.00 | < 1.58
7 | CCCC[C@H]1NC(=O)[C@H](CCCNC(=N)N)NC(=O)[C@@H](NC(=O)[C@H](CC(C)C)NC(=O)[C@H](CC(=O)O)NC(C)=O)CSSC[C@@H](C(N)=O)NC(=O)[C@H](CC(C)C)NC(=O)[C@H]([C@@H](C)CC)NC(=O)[C@H](C)NC(=O)[C@@H]2CCCN2C(=O)[C@H](Cc2ccccc2)NC(=O)[C@H](Cc2ccc(O)cc2)NC1=O [UPAR-274, Ac-Asp-Leu-[Cys-Arg-nle-Tyr-Phe-Pro-Ala-Ile-Leu-Cys]-NH2] (Ac-DLCR[dNle]YFPAILC-NH2; disulfide 3-12) | 7.50 to 7.90 | 1.58 to 10
8 | CCCCC(=O)N[C@H]1CSSC[C@@H](C(N)=O)NC(=O)[C@H](CCC)NC(=O)[C@H]([C@@H](C)CC)NC(=O)[C@H](CO)N(C)C(=O)[C@@H]2CCCN2C(=O)[C@H](Cc2ccccc2)NC(=O)[C@H](Cc2ccc(O)cc2)NC(=O)[C@H](CCCCNC(=O)CN2CCN(CC(=O)O)CCN(CC(=O)O)CCN(CC(=O)O)CC2)NC(=O)[C@H](CCCNC(N)=O)NC1=O [UPAR-277, Pent-[Cys-Cit-Lys(DOTA)-Tyr-Phe-Pro-Nms-Ile-Nva-Cys]-NH2] (Pentanoyl-C[Cit]K(DOTA)YFP[NMeS]I[Nva]C-NH2; disulfide 1-10) | 7.00 to 7.40 | 10 to 100
9 | CCCCOC(=O)N[C@H]1CSSC[C@@H](C(N)=O)NC(=O)[C@H](CCC)NC(=O)[C@H]([C@@H](C)CC)NC(=O)[C@@H]2C[C@@H](O)CN2C(=O)[C@@H]2C[C@H](F)CN2C(=O)[C@H](Cc2ccccc2)NC(=O)[C@H](Cc2ccc(O)c(O)c2)NC(=O)[C@H](CCCNC(=O)CN2CCN(CC(=O)O)CCN(CC(=O)O)CCN(CC(=O)O)CC2)NC(=O)[C@H]([C@@H](C)O)NC1=O [UPAR-280, Butoc-[Cys-Thr-Orn(DOTA)-Dopa-Phe-4Cfp-Hyp-Ile-Nva-Cys]-NH2] (Butoxycarbonyl-CT[Orn](DOTA)[Dopa]F[Pro(cis-4-F)][Hyp]I[Nva]C-NH2; disulfide 1-10) | ≥ 8.00 | < 1.58
10 | CCCCC(=O)N[C@H]1CSSC[C@@H](C(N)=O)NC(=O)[C@H](CCC)NC(=O)[C@H]([C@@H](C)CC)NC(=O)[C@H](CC(C)C)NC(=O)[C@@H]2CCCN2C(=O)[C@H](Cc2ccccc2)NC(=O)[C@H](Cc2ccc(O)cc2)NC(=O)[C@H](CCC(N)=O)NC(=O)[C@H](CCCNC(=N)N)NC1=O [UPAR-281, Pent-[Cys-Arg-Gln-Tyr-Phe-Pro-Leu-Ile-Nva-Cys]-NH2] (Pentanoyl-CRQYFPLI[Nva]C-NH2; disulfide 1-10) | ≥ 8.00 | < 1.58
11 | CCCCC(=O)N[C@H]1CSSC[C@@H](C(N)=O)NC(=O)[C@H](CCC)NC(=O)[C@H]([C@@H](C)CC)NC(=O)[C@@H]2C[C@@H](O)CN2C(=O)[C@@H]2CCCN2C(=O)[C@H](Cc2ccccc2)NC(=O)[C@H](Cc2ccc(O)cc2)NC(=O)[C@H](CCCCNC(=O)CN2CCN(CC(=O)O)CCN(CC(=O)O)CCN(CC(=O)O)CC2)NC(=O)[C@H](CC(N)=O)NC1=O [UPAR-283, Pent-[Cys-Asn-Lys(DOTA)-Tyr-Phe-Pro-Hyp-Ile-Nva-Cys]-NH2] (Pentanoyl-CNK(DOTA)YFP[Hyp]I[Nva]C-NH2; disulfide 1-10) | ≥ 8.00 | < 1.58
12 | CCCCOC(=O)N[C@H]1CSSC[C@@H](C(N)=O)NC(=O)[C@H](CCC)NC(=O)[C@H]([C@@H](C)CC)NC(=O)[C@@H]2C[C@@H](O)CN2C(=O)[C@@H]2C[C@@H](O)CN2C(=O)[C@H](Cc2ccccc2)NC(=O)[C@H](Cc2ccc(O)c(O)c2)NC(=O)[C@H](CCCCNC(=O)CN2CCN(CC(=O)O)CCN(CC(=O)O)CCN(CC(=O)O)CC2)NC(=O)[C@H]([C@@H](C)O)NC1=O [UPAR-284, Butoc-[Cys-Thr-Lys(DOTA)-Dopa-Phe-Hyp-Hyp-Ile-Nva-Cys]-NH2] (Butoxycarbonyl-CTK(DOTA)[Dopa]F[Hyp][Hyp]I[Nva]C-NH2; disulfide 1-10) | ≥ 8.00 | < 1.58
13 | CC[C@H](C)[C@@H]1NC(=O)[C@@H](C)NC(=O)[C@@H]2CCCN2C(=O)[C@H](Cc2ccccc2)NC(=O)[C@H](Cc2ccc(O)cc2)N(C)C(=O)[C@H](CCC(N)=O)NC(=O)[C@H](CCCNC(N)=O)NC(=O)[C@@H](NC(=O)CCC(C)C)CSSC[C@@H](C(N)=O)NC(=O)[C@H](CC(C)C)NC1=O [UPAR-285, iHex-[Cys-Cit-Gln-Nmy-Phe-Pro-ala-Ile-Leu-Cys]-NH2] ({Pentanoyl(4-Me)}-C[Cit]Q[NMeY]FP[dA]ILC-NH2; disulfide 1-10) | ≤ 6.90 | > 100
14 | CCCCNC(=O)N[C@H]1CSSC[C@@H](C(N)=O)NC(=O)[C@H](CC(C)C)NC(=O)[C@H]([C@@H](C)CC)NC(=O)[C@@H](C)NC(=O)[C@@H]2CCCN2C(=O)[C@H](Cc2ccccc2)NC(=O)[C@H](Cc2ccc(O)cc2)NC(=O)[C@H](CCC(N)=O)NC(=O)[C@H](CCCNC(N)=O)NC1=O [UPAR-286, nBuCAyl-[Cys-Cit-Gln-Tyr-Phe-Pro-ala-Ile-Leu-Cys]-NH2] ({NHBu-CO}-C[Cit]QYFP[dA]ILC-NH2; disulfide 1-10) | ≥ 8.00 | < 1.58
15 | CC[C@H](C)[C@@H]1NC(=O)[C@@H](C)NC(=O)[C@@H]2CCCN2C(=O)[C@H](Cc2ccccc2)NC(=O)[C@H](Cc2ccc(O)cc2)NC(=O)[C@H](CCC(N)=O)NC(=O)[C@H](CCCNC(=N)N)N(C)C(=O)[C@@H](NC(=O)CCC(C)C)CSSC[C@@H](C(N)=O)NC(=O)[C@H](CC(C)C)NC1=O [UPAR-287, iHex-[Cys-Nmr-Gln-Tyr-Phe-Pro-ala-Ile-Leu-Cys]-NH2] ({Pentanoyl(4-Me)}-C[NMeR]QYFP[dA]ILC-NH2; disulfide 1-10) | ≤ 6.90 | > 100
